Literature values as cited in US5246706A, “Device for administering bimakalim transdermally” (Cygnus Therapeutic Systems, priority 1991, dated 1993).

Key:
[1] = test system: potassium channel; details: background statement
[2] = known
[3] = octanol/phosphate buffer, pH 7.4; known

CC1(C)Oc2ccc(C#N)cc2[C@@H](n2ccccc2=O)[C@@H]1O (single isomer, unassigned) [(-)-trans-3,4-dihydro-4-(1,2-dihydro-2-oxo-1-pyridyl)-3-hydroxy-2,2-dimethyl-2H-1-benzopyran-6-carbonitrile]
potassium channel activating properties [1]: exhibits potassium channel activating properties

CC1(C)C=C(n2ccccc2=O)c2cc(C#N)ccc2O1 [Bimakalim, 4-(1,2-dihydro-2-oxo-1-pyridyl)-2,2-dimethyl-2H-1-benzopyran-6-carbonitrile]
water solubility [2]: approximately 0.7 mg/ml | potassium channel activating properties [1]: potassium channel activating drug | partition coefficient [3]: 27.0
